# Experimental data as given in paper PMC8414802, “Hair Cell Generation in Cochlear Culture Models Mediated by Novel γ-Secretase Inhibitors” (Frontiers in Cell and Developmental Biology, 2021).
# Test system: hair cell genes (Atoh1, Pou4f3, Myo7a) and supporting cell gene (Hes5) in cochlear organoids
# Assay: Cochlear organoids from Atoh1-nGFP mice, gene expression by RT-PCR
# Format: cell-based
# Conditions: mouse organoids, 5 μM, end of differentiation, vs untreated
# Description: On day 0, the cochlear sensory epithelium was dissected and the OC was separated from the modiolus and stria vascularis, as described above, from either Wistar rat pups (P2), Lgr5-GFP mice (P0–P2) or Atoh1-GFP mice (P0–P2). To separate the sensory epithelial layer from underlying mesenchyme and neurons, the OC was placed in a 100 μl drop of Matrisperse Cell Recovery Solution (Corning) for 1 h at RT, then delaminated with the aid of forceps. Gentle enzymatic dissociation of hair cells and supporting cells followed with 100 μl drop of TrypLE (Gibco), 20 min at 37°C, then mechanical trituration in DMEM/F12. The cell suspension was centrifuged for 5 min at 500 g at 4°C and resuspended in DMEM/F12 medium supplemented with B27 and N2 (Invitrogen), EGF (50 ng/ml), bFGF (50 ng/ml), IGF (25 ng/ml), CHIR99021 (GSK-3β inhibitor, 3 μM, Merck), valproic acid (HDAC inhibitor, 1 mM, Sigma), 2-phospho-L-ascorbic acid (280 μM, Stemcell Technologies) and 0.01% ampicillin (Sigma). Cells were plated at 2,000 cells per well on 96 wells plate (Corning Costar; ultra-low attachment, round-bottom) to allow aggregation at 37°C. On day 1, Matrigel (GF-depleted, Corning; 2% stock) was added to a final concentration of 0.18 mg/ml. On day 3, cells were transferred to 24 wells plate (ultra-low attachment; Corning Costar), pooling the organoid aggregates from 4 to 5 wells (96 well-plate) to one 24-well, culturing at 37°C and exchanging half medium and Matrigel every other day, On day 10, organoids were differentiated by replacing medium with DMEM/F12 supplemented with B27, N2, CHIR99021 (3 μM), and Notch inhibitors CPD3 (5 μM) or LY411575 (5 μM), and culture was continued as above for another 10 days.
# Cells or tissue were lysed using RLT Lysis Buffer (Qiagen) and high purity RNA was prepared on the MagNA Pure instrument using MagNA Pure 96 Cellular RNA LV Kit (Roche). […] Normalized to Tbp, relative gene expression fold-change was quantified and compared between experimental and control conditions by ΔΔCt calculation. […]
smiles,measurement,value
COc1ccc2c(c1)N1CCC(C)(C)C1=CC(=O)[C@H]2NC(=O)[C@H](C)NC(=O)CCC(F)(F)F [CPD3],Atoh1 expression,8.07 ± 5.6 fold
same,Myo7a expression,9.9 ± 10.5 fold
same,Pou4f3 expression,12.65 ± 11.07 fold
